One block for each compound: values may come before it. Activity calls are given as the source filed them.
Tests used:
Caspase-6 = target: T1, Caspase-6 (Homo sapiens, UniProt P55212); experiment: human caspase-6 inhibitors, dose response, biochemical, VEID-R110 fluorescence, cherry-pick (AID 720632)
T1 sequence (P55212 whole entry): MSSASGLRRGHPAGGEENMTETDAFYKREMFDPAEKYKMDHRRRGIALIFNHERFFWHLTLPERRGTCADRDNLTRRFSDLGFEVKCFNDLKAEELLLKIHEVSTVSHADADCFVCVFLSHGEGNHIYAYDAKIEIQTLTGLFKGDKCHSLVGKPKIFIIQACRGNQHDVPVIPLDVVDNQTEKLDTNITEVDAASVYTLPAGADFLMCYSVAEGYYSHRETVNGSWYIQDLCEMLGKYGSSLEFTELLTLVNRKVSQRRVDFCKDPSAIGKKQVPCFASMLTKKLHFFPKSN

[1] = target: T2, Ubiquitin-conjugating enzyme E2 N (Homo sapiens, UniProt P61088); format: functional;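 also: Dose-response confirmation in a TR-FRET assay detecting UBC13-driven polyubiquitin chain formation, inhibition measured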
T2 sequence (P61088 whole entry): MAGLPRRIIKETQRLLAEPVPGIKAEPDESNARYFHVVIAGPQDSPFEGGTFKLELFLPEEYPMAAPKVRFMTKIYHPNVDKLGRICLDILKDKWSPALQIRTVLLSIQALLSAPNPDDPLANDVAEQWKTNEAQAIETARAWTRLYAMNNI

Paired box protein Pax-8 = Paired box protein Pax-8 (Homo sapiens, UniProt Q06710); experiment: inhibitors of PAX8-driven TPO luciferase reporter, dose response, RMG-I cells, cherry-pick (AID 687027); format: functional, cell-based;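 also: luciferase reporter driven by Pax8 target thyroperoxidase promoter measured by SteadyGlo luminescence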
[2] = non-specific cell cytotoxicity, dose response, cytotoxicity control for PAX8 inhibitor project, plate reader, dry powder samples (AID 743021); format: functional, cell-based
[3] = A549 cell cytotoxicity, dose response, cytotoxicity control, plate reader, cherry-pick, antagonist series (AID 743412); format: functional, cell-based
[4] = test system: Streptococcus sp. 'group A'; experiment: growth inhibition of control SK(-) GAS strain, dose response, counter-screen for streptokinase expression inhibitor project, luminescence, kanamycin, BacTiterGlo, confirmation (AID 1900); format: functional, organism-based
cells [5] = format: functional, cell-based
cells [6] = format: functional, cell-based; remark: listed apart in the source
Streptococcus = experiment: Group A Streptococcus viability loss, dose response, counter-screen for streptokinase expression inhibitor project, luminescence, BacTiterGlo (AID 1915); format: functional, organism-based;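 also: potency for reduction of bacterial viability or growth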
INS1 = experiment: beta cell apoptosis inhibitors, cytokine rescue, dose response, luminescence, retest (AID 449756); format: functional, cell-based; settings: Rattus norvegicus;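 also: cell death triggered by IL-1 beta plus TNF-alpha plus IFN-gamma mixture; protective hits raise ATP signal compared with cytokine alone wells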
Albumin = Albumin (Bos taurus, UniProt P02769); experiment: Counterscreen for inhibitors of T-cell receptor (TCR)-CD3 interaction: Fluorescence-based biochemical high throughput dose response assay to identify inhibitors of T-cell receptor (TCR)-CD3 interaction using a TAMRA-labeled BSA probe.; format: functional
[7] = human group III sPLA2 inhibitors, dose response, biochemical, QFRET, IC50 (AID 743457);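 also: green fluorescence rise as the enzyme cleaves BODIPY PC-A2 in liposomes; potency for inhibition of the enzyme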
Melanocortin receptor 4 = Melanocortin receptor 4 (Homo sapiens, UniProt P32245); experiment: MC4R antagonist potency on cAMP, dose response, cell-based, TR-FRET, biased antagonists (AID 602298); format: functional;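 also: antagonist potency against agonist-stimulated cAMP production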
[8] = Shn3 3'UTR reporter inhibitors, dose response, cell-based, Clone20 osteoblasts, firefly luciferase, cherry-picked (AID 624132); format: functional;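 also: firefly luciferase luminescence from reporter carrying the Shn3 3'UTR in osteoblasts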
[9] = HepG2 cell cytotoxicity, dose response, cytotoxicity control for Shn3 inhibitor project, CellTiter-Glo, cherry-picked (AID 624134); format: functional, cell-based
[10] = control 3'UTR Renilla luciferase suppression, dose response, counter-screen for Shn3 inhibitor project, cell-based, Clone20-Shn3RL, cherry-picked (AID 624133); format: functional
[11] = nonselective inhibitors of cellular cAMP signaling, dose response, counter-screen for MC4R biased antagonist project, cell-based, TR-FRET cAMP detection (AID 602305); format: functional;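 also: U2OS cells stimulated with forskolin near its EC80 as the cAMP inducer; potency is for inhibition of forskolin-stimulated cAMP signaling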
[12] = Fluorescence-based cell-based high throughput dose response assay for inhibitors of the interaction of nucleotide-binding oligomerization domain containing 2 (NOD2) and the receptor-interacting serine-threonine kinase 2 (RIPK2).; format: functional; settings: Homo sapiens
Beta Lactamase = Beta Lactamase (Pseudomonas aeruginosa, UniProt Q932Y6); experiment: beta-lactamase reporter inhibitor potency, dose response, artefact control for NOD2-RIPK2 interaction inhibitor project, BLA reporter cells, FRET fluorescence (AID 651552); format: functional, cell-based
[13] = target: T3, Corticotropin-releasing factor receptor 2/Corticotropin-releasing factor-binding protein (Homo sapiens, UniProt P24387+Q13324); experiment: Dose Response confirmation of uHTS hits for small molecule antagonists of the CRF-binding protein and CRF-R2 receptor complex.; format: functional; settings: read-out: IC50_Mean
T3 sequence (Q13324 whole entry): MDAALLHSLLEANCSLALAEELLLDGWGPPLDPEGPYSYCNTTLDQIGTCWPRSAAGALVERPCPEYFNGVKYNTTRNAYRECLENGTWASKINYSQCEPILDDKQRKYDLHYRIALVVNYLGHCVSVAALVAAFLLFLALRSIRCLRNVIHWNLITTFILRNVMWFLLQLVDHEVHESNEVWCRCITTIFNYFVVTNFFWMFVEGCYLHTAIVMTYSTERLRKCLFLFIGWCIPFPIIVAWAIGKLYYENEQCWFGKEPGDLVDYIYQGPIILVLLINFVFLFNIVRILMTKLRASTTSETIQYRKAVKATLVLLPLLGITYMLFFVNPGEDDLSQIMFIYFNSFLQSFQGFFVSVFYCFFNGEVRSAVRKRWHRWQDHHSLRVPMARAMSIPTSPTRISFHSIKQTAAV
T3 sequence (P24387 whole entry): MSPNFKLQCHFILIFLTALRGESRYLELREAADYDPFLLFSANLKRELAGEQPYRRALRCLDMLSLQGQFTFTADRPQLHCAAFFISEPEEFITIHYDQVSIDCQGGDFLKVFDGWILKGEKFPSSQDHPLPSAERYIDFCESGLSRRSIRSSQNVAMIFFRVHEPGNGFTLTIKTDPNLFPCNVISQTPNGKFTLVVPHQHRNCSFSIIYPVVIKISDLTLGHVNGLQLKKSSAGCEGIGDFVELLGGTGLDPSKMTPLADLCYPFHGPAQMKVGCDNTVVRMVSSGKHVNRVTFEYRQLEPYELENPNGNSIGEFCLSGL

[14] = target: T3, Corticotropin-releasing factor receptor 2/Corticotropin-releasing factor-binding protein; experiment: activators of CRF receptor 2 with binding protein – uHTS hits, confirmation (AID 602473); format: functional; settings: read-out: EC50_Mean

Chain of Paired box protein Pax-8 (Q06710 whole entry): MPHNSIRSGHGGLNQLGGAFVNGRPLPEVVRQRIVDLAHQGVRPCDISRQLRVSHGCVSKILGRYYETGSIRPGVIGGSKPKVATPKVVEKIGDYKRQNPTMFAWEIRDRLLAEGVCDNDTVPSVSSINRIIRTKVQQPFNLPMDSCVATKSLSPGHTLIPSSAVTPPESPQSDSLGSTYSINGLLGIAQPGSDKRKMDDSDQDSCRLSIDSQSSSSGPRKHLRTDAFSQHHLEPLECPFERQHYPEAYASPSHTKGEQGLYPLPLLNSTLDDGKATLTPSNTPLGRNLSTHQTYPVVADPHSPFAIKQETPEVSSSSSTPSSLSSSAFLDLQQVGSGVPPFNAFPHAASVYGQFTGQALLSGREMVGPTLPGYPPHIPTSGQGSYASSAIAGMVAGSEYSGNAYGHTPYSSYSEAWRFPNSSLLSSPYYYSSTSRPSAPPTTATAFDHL
Chain of Melanocortin receptor 4 (P32245 whole entry): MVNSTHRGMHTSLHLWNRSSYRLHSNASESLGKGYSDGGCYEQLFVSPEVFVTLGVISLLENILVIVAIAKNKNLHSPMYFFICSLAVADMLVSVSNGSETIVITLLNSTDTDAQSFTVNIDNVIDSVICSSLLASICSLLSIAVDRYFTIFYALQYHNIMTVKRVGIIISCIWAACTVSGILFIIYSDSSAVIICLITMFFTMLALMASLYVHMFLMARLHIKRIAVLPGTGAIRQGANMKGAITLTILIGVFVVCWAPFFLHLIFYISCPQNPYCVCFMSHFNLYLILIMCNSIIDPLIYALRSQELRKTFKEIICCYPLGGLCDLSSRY
Chain of Beta Lactamase (Q932Y6 whole entry): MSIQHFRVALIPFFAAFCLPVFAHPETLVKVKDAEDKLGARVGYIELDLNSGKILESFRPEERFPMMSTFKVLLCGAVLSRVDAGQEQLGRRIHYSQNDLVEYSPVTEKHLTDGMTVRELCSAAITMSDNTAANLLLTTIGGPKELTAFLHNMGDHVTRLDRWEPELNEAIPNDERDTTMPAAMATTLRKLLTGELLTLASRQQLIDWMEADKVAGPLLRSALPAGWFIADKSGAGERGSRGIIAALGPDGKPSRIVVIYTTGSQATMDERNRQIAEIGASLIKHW
Chain of Albumin (P02769 whole entry): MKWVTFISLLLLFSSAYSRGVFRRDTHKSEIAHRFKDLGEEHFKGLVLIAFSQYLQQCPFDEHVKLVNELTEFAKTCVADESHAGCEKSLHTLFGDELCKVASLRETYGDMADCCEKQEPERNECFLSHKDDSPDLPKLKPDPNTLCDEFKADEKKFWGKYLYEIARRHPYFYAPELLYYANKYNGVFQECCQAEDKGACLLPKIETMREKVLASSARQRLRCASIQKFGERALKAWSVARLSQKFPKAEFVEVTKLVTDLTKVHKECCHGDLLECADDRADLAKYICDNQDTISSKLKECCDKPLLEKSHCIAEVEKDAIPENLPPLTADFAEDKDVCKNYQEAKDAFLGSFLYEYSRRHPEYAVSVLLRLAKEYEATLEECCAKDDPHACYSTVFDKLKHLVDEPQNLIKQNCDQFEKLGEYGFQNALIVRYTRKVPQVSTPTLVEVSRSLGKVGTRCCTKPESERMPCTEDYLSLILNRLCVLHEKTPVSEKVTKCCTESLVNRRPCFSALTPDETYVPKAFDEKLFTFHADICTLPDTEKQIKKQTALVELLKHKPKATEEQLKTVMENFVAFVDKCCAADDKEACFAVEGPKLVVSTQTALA

AC50 (Caspase-6): 18.5 µM (active)
Compound: COc1cc(C(=O)OCC(=O)N2CCCC2=O)cc(OC)c1C

Compound: COc1cccc(/C=C2/Sc3ccc(C(=O)NCCN4CCCCCC4)cc3NC2=O)c1
IC50 [1]: > 20 µM (inactive)
AC50 (Paired box protein Pax-8): 10.1 µM (active)
AC50 [2]: 36 µM (active)

AC50 (Caspase-6): 51.7 µM (active)
Compound: CC(C)CN1C(=O)NC2(CCCc3ccccc32)C1=O (centres undefined)

Compound: CC(=O)N1CCc2cc(S(=O)(=O)C(C)CC(=O)NCc3ccco3)ccc21 (centres undefined)
AC50 [3]: > 52 µM (inactive)

Compound: Cc1cc(Br)cc(/C=N/NC(=O)c2ccc3c(c2)OCO3)c1O
EC50 [4]: 1.22 µM (active)
EC50 (cells [5]): 96.8 µM (active)
EC50 (cells [6]): 75.7 µM (active)
EC50 (Streptococcus): 3.25 µM (active)
AC50 (INS1): 1.32 µM (active)
IC50 (Albumin): > 94.1 µM (inactive)
IC50 [7]: > 122 µM (inactive)

Compound: CC(OC(=O)c1ccc(S(C)(=O)=O)c([N+](=O)[O-])c1)C(=O)NC1C2CC3CC(C2)CC1C3 (centres undefined)
IC50 (Melanocortin receptor 4): > 64.6 µM (inactive)
AC50 [8]: 1.4 µM (active)
AC50 [9]: 8.28 µM (active)
AC50 [10]: 7.51 µM (active)
IC50 [11]: > 64.6 µM (inactive)
IC50 [12]: 0.8 µM (active)
IC50 (Beta Lactamase): 49.8 µM (inactive)
AC50 (Paired box protein Pax-8): 5.88 µM (active)
AC50 [2]: 22.6 µM (active)

IC50 [13]: > 47.1 µM (inactive)
EC50 [14]: > 53 µM (inactive)
Compound: Nc1ccc(S(=O)(=O)Nc2ccc(Cl)nn2)cc1 [SULFACHLORPYRIDAZINE]
